Results on 3 sequences are retold here after patent US20250326799A1, “AGENTS INDUCING VASCULARISATION” (Coegin Pharma AB, priority 2022, published 2025).

Test [1] concerns Human umbilical cord endothelial cells (HUVECs). As to the kind of experiment: BrdU cell proliferation in HUVECs. Type of test: cell-based. Particulars: for proliferation of human umbilical vascular endothelial cells (BrdU uptake): addition of the peptide, increasing concentration; for stimulation of endothelial cell proliferation (BrdU) after NRP-1 knock-down: HUVECs treated with siRNA-NC or siRNA for NRP-1, then peptide; for endothelial cell proliferation (DNA synthesis, uptake of BrdU, O.D. 450 nm): 10 nM, 100 nM, 1000 nM, compared to control. Here is the method: Cell proliferation was evaluated with BrdU Cell Proliferation Elisa Kit (Abcam, UK). After incubation at 37° C. overnight with respective complete medium, for NRP-1 knock down-relative experiments, HUVECs and HCASMCs on 96-well plates were transfected with siRNA/siRNA-NC directly; for test polypeptide stimulations, HUVECs and HCASMCs were starved with low-serum condition for additional 24 hours and 48 hours before treatments. At 32 hours after transfection or polypeptide stimulations, cells were cultured with BrdU reagent for another 16 hours to determine cell proliferation. Subsequent steps were performed as manufacturer's instructions and data were read by Wallac 1420 Victor 2 (Perkin Elmer, USA).
For stimulation of endothelial cell proliferation, human umbilical cord endothelial cells were first treated with a scramble non-coding siRNA (NC) or siRNA for NRP-1, subsequently they were treated with FOL26 in concentrations of 10 nM, 100 nM, and 1000 nM, and DNA synthesis analyzed by measuring the uptake of BrdU.
The impact of FOL-026 peptide on human umbilical vascular endothelial cells (HUVECs) proliferation (FIG. 18a) and apoptosis (FIG. 18c) induced with low-oxygen condition was determined by BrdU uptake (n=8-9 per group) and active caspase-3/-7 (n=7-10 per group) separately. The ROS level (FIG. 18b) activated by 50 ug/ml oxidized Low-density Lipoprotein (oxLDL) for 2 hours in cells pre-incubated with FOL-026 peptides was assessed using H2O2 measurement (n=4-8 per group). Representative pictures of endothelial migration into an in vitro scratch injury were shown (FIG. 19a) and the wound closure rate (FIG. 19b) in HUVECs stimulated with increasing concentration of FOL-026 peptide was quantified by image J software (n=8-9 per group). Scale bar=150 um. Data are presented as means±SEM and acquired from 3 to 4 independent replicate tests. *P<0.05, **P<0.01, ****P<0.0001 by one-way ANOVA and Dunnett's post-hoc test.
The efficiency of small interfering RNA transfection for 48 hours in HUVECs was confirmed by qRT-PCR (n=4) (FIG. 22a). Effect of FOL-026 peptide stimulation on cell proliferation (FIG. 22b) and cell apoptosis at 0.1% oxygen (FIG. 22c) in HUVECs transfected with siRNA-NC or siNRP-1 was evaluated by BrdU incorporation (n=4-7 per group) and active caspase-3/-7 ((n=4-7 per group). Representative pictures of endothelial cells at 0 and 5 hours after scratch wounding are shown in 23a. The wound closure rate (FIG. 23b) of siRNA-NC/siNRP-1-transfected HUVECs stimulated with increasing concentration of FOL-026 peptide was quantified by image J software (n=9-12 per group). Scale bar=150 um. Data are presented as means±SEM and acquired from 3 to 4 independent replicate tests. *P<0.05, **P<0.01, ***P<0.001, ****P<0.0001 by Student's t test for A, two-way ANOVA followed with Sidak's and Dunnett's multiple comparisons test for B, C and E.
The endothelial cell proliferation (FIG. 29a) was assessed with BrdU uptake in human umbilical vascular endothelial cells (HUVECs) stimulated with increasing concentration of FOL-005 peptide for 48 hours (n=7-10 per group).

The test system is the same in test [2]. As to the kind of experiment: Endothelial tube formation on Geltrex matrix. Type of test: cell-based. The settings on record: for tube formation (total length, master segments, branching, segments length): HUVECs treated with peptide; for endothelial tube formation after NRP-1 knock-down / endothelial tube formation: HUVECs; for endothelial tube formation after NRP-1 knock-down: siRNA-NC or siNRP-1 group, then rising dose of peptide; for endothelial tube formation: 10 nM, 100 nM, 1000 nM, compared to control. Here is the method: Cells were transfected for 48 hours or performed with 0.5% supplement starvation for 24 hours on 6-well plates as described above and dissociated by Accutase (Gibco, USA) to obtain cell suspension. Geltrex reduced growth factor basement membrane matrix ((Invitrogen, CA, USA) was thawed at 4° C. overnight and added into a 96-well plate (50 µl/well) next. The coated 96-well plate was placed in the incubator more than 30 mins for further use and the cell suspension was seeded into it at a density of 1.5 x 10^4/well. For NRP-1 silencing experiments, cells were cultured with complete medium. For polypeptide treatment experiments, cells were stimulated with complete medium plus the different concentration of polypeptide. For NRP-1 rescued experiments, cells transfected with siRNA were cultured with complete medium and NRP-1 stimulations. After a 24-hour incubation, images were recorded by an inverted microscope (Nikon, Eclipse TE2000-U, Japan) and the sum length of master segments of vessels in each image were quantified using Angiogenesis Analyzer plug-in ImageJ software program (pixel/unit). Data were analyzed with photographs from 8-14 wells per condition.
Human umbilical cord endothelial cells were first treated with a scramble non-coding siRNA (NC) or siRNA for NRP-1, subsequently treated with FOL26 in concentrations of 10 nM, 100 nM, and 1000 nM, and endothelial tube formation and the total master segemnts were measured using ImageJ. gene expression of PECAM-1 (CD31) analyzed.
Quantified measurement of total length (FIG. 20b), total master segments length (FIG. 20c), total branching length (FIG. 20d) and total segments length (FIG. 20e) were performed to evaluate angiogenesis in vitro (n=7 per group for FIG. 29 b-e). The quantification of vessel density was assessed with CD31+ positive area (FIG. 21a, n=13 per group). Western blot analysis of phosphorylated AKT (pAKT-T308), AKT, phosphorylated ERK1/2 (p-ERK1/2) and ERK1/2 in endothelial cells stimulated with FOL-26 peptides for 48 hours (FIG. 21b). Quantification of phosphorylation intensities normalized to respective total expressions (FIG. 21c-d, n=3 per group).
Tube formation with rising dose of FOL-026 peptide treatment in siRNA-NC or siNRP-1 group (FIG. 24a) and total length (FIG. 24b), total master segments length (FIG. 24c), total branching length (FIG. 24d) and total segments length (FIG. 24e) was calculated using Angiogenesis Analyzer plug-in ImageJ (n=7-12 per group). Scale bar=150 um. Data are presented as means±SEM and acquired from 3 to 4 independent replicate tests. *P<0.05, **P<0.01, ***P<0.001, ****P<0.0001 by two-way ANOVA followed with Sidak's and Dunnett's multiple comparisons test.
Quantified measurement of total master segments length FIG. 31b was used to evaluate angiogenesis in vitro (n=7 per group). Scale bar=150 um.

Entries after “also recorded” stand apart in the source; their conditions may differ.

VDTYDGDISVVYGLR [FOL-005]: in test [1] (HUVECs), the “proliferation of human umbilical vascular endothelial cells (BrdU uptake)” value is recorded as “increases”. The “tube formation (total length, master segments, branching, segments length)” value in test [2] is given as “increases the tube formation”.

As for VDTYDGGISVVYGLR [FOL-026], the entries for the “stimulation of endothelial cell proliferation (BrdU) after NRP-1 knock-down” value in test [1] and in test [1] (listed as FOL26) were “blocks the effect” and “NRP-1 dependent”, respectively. For the same sequence, the “endothelial cell proliferation (DNA synthesis, uptake of BrdU, O.D. 450 nm)” value in test [1] (HUVECs, listed as FOL26) is “significant increase in proliferation; also recorded: increase in O.D. (450 nm)”. Besides, the “BrdU uptake after siRNA for NRP-1” value in test [1] (HUVECs, 10 and 100 nM) is on record as “reduction”. Also, the “proliferation of human umbilical vascular endothelial cells (BrdU uptake)” value in test [1] (HUVECs) is given as “increases”. In addition, the “tube formation (total length, master segments, branching, segments length)” value in test [2] is reported as “positive effect”. In addition, the “endothelial tube formation after NRP-1 knock-down” value in test [2] is on record as “induce tube formation”; in test [2] (listed as FOL26), “increased tube formation compared to control in a NRP-1 dependent way”. In addition, the endothelial tube formation result in test [2] (listed as FOL26) is “significantly increased tube formation; also recorded: increased tube formation compared to control”.

Regarding AEIDSIELSYGIK [FOL56], the “endothelial cell proliferation (DNA synthesis, uptake of BrdU, O.D. 450 nm)” value in test [1] (HUVECs) is “significant increase in proliferation; also recorded: increases proliferation at all concentrations”. In test [2], the endothelial tube formation entry is listed as “significantly increased tube formation; also recorded: increased tube formation at all concentrations”.
